Values after ≈ are worked out from the molar mass of the structure shown.
Columns and labels:
S. aureus ATCC 13709 = assay: MIC, S. aureus ATCC 13709 (Alamar Blue broth microdilution); format: cell-based; conditions: Alamar Blue read after overnight incubation at 35° C.; for MIC: Staphylococcus aureus, ATCC13709, S. aureus
E. coli ATCC 25922 = assay: MIC, E. coli ATCC 25922; format: cell-based; conditions: Alamar Blue read after overnight incubation at 35° C.; for MIC: Escherichia coli, ATCC25922, E. coli

Which results are given for `CNc1cccc2c1[nH]c1nc(Oc3cnc4c(c3)ncn4C)nc(N3CC4C(N)C4C3)c12` (centres unmarked) [3.36]?
MIC (S. aureus ATCC 13709): ≤ 0.5 µg/mL; MIC (E. coli ATCC 25922): 2 µg/mL (≈ 4.53 µM)

What does the source list for `CNc1cccc2c1[nH]c1nc(Oc3cncnc3)nc(Oc3cncnc3)c12` [3.37]?
MIC (S. aureus ATCC 13709): 2 µg/mL (≈ 5.18 µM); MIC (E. coli ATCC 25922): > 64 µg/mL

Which MIC (S. aureus ATCC 13709) does the source give for `CNc1cccc2c1[nH]c1nc(Oc3cnc(C)nc3)nc(Oc3cnc(C)nc3)c12` [3.38] here?
The MIC was 1 µg/mL (≈ 2.41 µM).

And the MIC (E. coli ATCC 25922)?
The MIC was greater than 32 µg/mL.

`CNc1cccc2c1[nH]c1nc(Oc3ccc[n+]([O-])c3)nc(Oc3cnc(C)nc3)c12` [3.39] was tested. Which MIC (S. aureus ATCC 13709) did it give?
Its MIC is 2 µg/mL (≈ 4.81 µM).

What about the MIC (E. coli ATCC 25922) of the same compound?
The MIC was 64 µg/mL (≈ 154 µM).

Which MIC (S. aureus ATCC 13709) does the source give for `CNc1cccc2c1[nH]c1nc(Oc3cncc(C#N)c3)nc(N3CCC4(CC4N)C3)c12` (centres unmarked) [3.40] here?
Its MIC is no more than 0.5 µg/mL.

What about the MIC (E. coli ATCC 25922) of the same compound?
The MIC was 1 µg/mL (≈ 2.34 µM).

Which results are given for `CNc1cccc2c1[nH]c1nc(Oc3cncnc3)nc(N3CCC4(CC4N)C3)c12` (centres unmarked) [3.41]?
MIC (S. aureus ATCC 13709): ≤ 0.5 µg/mL; MIC (E. coli ATCC 25922): ≤ 0.5 µg/mL

Which MIC (S. aureus ATCC 13709) does the source give for `CNc1cccc2c1[nH]c1nc(Oc3cnc(C)nc3)nc(N3CCC4(CC4N)C3)c12` (centres unmarked) [3.42] here?
The MIC was no more than 0.5 µg/mL.

What about the MIC (E. coli ATCC 25922) of the same compound?
Its MIC is 2 µg/mL (≈ 4.8 µM).

With `CNc1cccc2c1[nH]c1nc(Oc3cncc(C#N)c3)nc(N3CC(N)C4(CC4)C3)c12` (centres unmarked) [3.43] as the compound, how does the MIC (S. aureus ATCC 13709) read?
The MIC was no more than 0.5 µg/mL.

And the MIC (E. coli ATCC 25922)?
The MIC was 1 µg/mL (≈ 2.34 µM).

For `CNc1cccc2c1[nH]c1nc(Oc3cncc(C#N)c3)nc(N3C[C@@H](N)C4(CC4)C3)c12` [3.44], which MIC (S. aureus ATCC 13709) is on record?
The MIC was 8 µg/mL (≈ 18.8 µM).

What about the MIC (E. coli ATCC 25922) of the same compound?
The MIC was 16 µg/mL (≈ 37.5 µM).

How did the MIC (S. aureus ATCC 13709) turn out when `CNc1cccc2c1[nH]c1nc(Oc3cncnc3)nc(N3CC(N)C4(CC4)C3)c12` (centres unmarked) [3.45] was run?
The MIC was no more than 0.5 µg/mL.

And the MIC (E. coli ATCC 25922)?
Its MIC is no more than 0.5 µg/mL.

`CNc1cccc2c1[nH]c1nc(Oc3cncnc3)nc(N3C[C@@H](N)C4(CC4)C3)c12` [3.46] was tested. Which MIC (S. aureus ATCC 13709) did it give?
The MIC was 2 µg/mL (≈ 4.97 µM).

And the MIC (E. coli ATCC 25922)?
Its MIC is 4 µg/mL (≈ 9.94 µM).

`CNc1cccc2c1[nH]c1nc(Oc3cncnc3)nc(N3C[C@H](N)C4(CC4)C3)c12` [3.47] was tested. Which MIC (S. aureus ATCC 13709) did it give?
The MIC was no more than 0.5 µg/mL.

And the MIC (E. coli ATCC 25922)?
Its MIC is no more than 0.5 µg/mL.

`CNc1cccc2c1[nH]c1nc(Oc3cnc(C)nc3)nc(N3C[C@@H](N)C4(CC4)C3)c12` [3.48] was tested. Which MIC (S. aureus ATCC 13709) did it give?
The MIC was 2 µg/mL (≈ 4.8 µM).

And the MIC (E. coli ATCC 25922)?
The MIC was 8 µg/mL (≈ 19.2 µM).

For `CNc1cccc2c1[nH]c1nc(Oc3cnc(C)nc3)nc(N3C[C@H](N)C4(CC4)C3)c12` [3.49], which MIC (S. aureus ATCC 13709) is on record?
Its MIC is no more than 0.5 µg/mL.

And the MIC (E. coli ATCC 25922)?
Its MIC is no more than 0.5 µg/mL.

With `CNc1cccc2c1[nH]c1nc(Oc3cncc(F)c3)nc(N3CC(N)C4(CC4)C3)c12` (centres unmarked) [3.50] as the compound, how does the MIC (S. aureus ATCC 13709) read?
Its MIC is no more than 0.5 µg/mL.

What about the MIC (E. coli ATCC 25922) of the same compound?
The MIC was 2 µg/mL (≈ 4.77 µM).

`CNc1cccc2c1[nH]c1nc(Oc3cncc(F)c3)nc(N3C[C@@H](N)C4(CC4)C3)c12` [3.51] was tested. Which MIC (S. aureus ATCC 13709) did it give?
Its MIC is 8 µg/mL (≈ 19.1 µM).

What about the MIC (E. coli ATCC 25922) of the same compound?
The MIC was 32 µg/mL (≈ 76.3 µM).

With `CNc1cccc2c1[nH]c1nc(Oc3cnc4cccnc4c3)nc(N3CC(N)C4(CC4)C3)c12` (centres unmarked) [3.52] as the compound, how does the MIC (S. aureus ATCC 13709) read?
The MIC was no more than 0.5 µg/mL.

What about the MIC (E. coli ATCC 25922) of the same compound?
Its MIC is no more than 0.5 µg/mL.

What does the source list for `CNc1cccc2c1[nH]c1nc(Oc3cnc(N)nc3)nc(Oc3cnc(N)nc3)c12` [3.53]?
MIC (S. aureus ATCC 13709): 8 µg/mL (≈ 19.2 µM); MIC (E. coli ATCC 25922): > 64 µg/mL

`CNc1cccc2c1[nH]c1nc(Oc3cncnc3)nc(N3CCN(Cc4ccccn4)CC3)c12` [3.54] was tested. Which MIC (S. aureus ATCC 13709) did it give?
The MIC was 8 µg/mL (≈ 17.1 µM).

What about the MIC (E. coli ATCC 25922) of the same compound?
The MIC was greater than 32 µg/mL.

For `CNc1cccc2c1[nH]c1nc(Oc3cncc(C#N)c3)nc(N3CCN(CCN)CC3)c12` [3.55], which MIC (S. aureus ATCC 13709) is on record?
Its MIC is 64 µg/mL (≈ 144 µM).

And the MIC (E. coli ATCC 25922)?
Its MIC is greater than 64 µg/mL.

For `CNc1cccc2c1[nH]c1nc(Oc3cncnc3)nc(N3CCN(CCN)CC3)c12` [3.56], which MIC (S. aureus ATCC 13709) is on record?
Its MIC is greater than 64 µg/mL.

And the MIC (E. coli ATCC 25922)?
The MIC was greater than 64 µg/mL.

Which results are given for `CNc1cccc2c1[nH]c1nc(Oc3cncc(C#N)c3)nc(N3CCC(CN)C3)c12` (centres unmarked) [3.57]?
MIC (S. aureus ATCC 13709): 1 µg/mL (≈ 2.41 µM); MIC (E. coli ATCC 25922): 8 µg/mL (≈ 19.3 µM)

With `CNc1cccc2c1[nH]c1nc(Oc3cncnc3)nc(N3CCC(CN)C3)c12` (centres unmarked) [3.58] as the compound, how does the MIC (S. aureus ATCC 13709) read?
Its MIC is 32 µg/mL (≈ 82 µM).

What about the MIC (E. coli ATCC 25922) of the same compound?
The MIC was greater than 64 µg/mL.

`CNc1cccc2c1[nH]c1nc(Oc3cncc(C#N)c3)nc(N3CCN(CCN4CCOCC4)CC3)c12` [3.59] was tested. Which MIC (S. aureus ATCC 13709) did it give?
The MIC was 4 µg/mL (≈ 7.79 µM).

What about the MIC (E. coli ATCC 25922) of the same compound?
The MIC was greater than 64 µg/mL.

`CNc1cccc2c1[nH]c1nc(Oc3cncnc3)nc(N3CCN(CCN4CCOCC4)CC3)c12` [3.60] was tested. Which MIC (S. aureus ATCC 13709) did it give?
The MIC was 8 µg/mL (≈ 16.3 µM).

And the MIC (E. coli ATCC 25922)?
Its MIC is greater than 64 µg/mL.

With `CNc1cccc2c1[nH]c1nc(Oc3cncnc3)nc(N3C[C@@H]4CNC[C@H]4C3)c12` [3.61] as the compound, how does the MIC (S. aureus ATCC 13709) read?
The MIC was 4 µg/mL (≈ 9.94 µM).

And the MIC (E. coli ATCC 25922)?
Its MIC is 16 µg/mL (≈ 39.8 µM).

With `CNc1cccc2c1[nH]c1nc(Oc3cncnc3)nc(N3C/C(=N\OC)[C@@H](N)C3)c12` [3.62] as the compound, how does the MIC (S. aureus ATCC 13709) read?
The MIC was no more than 0.5 µg/mL.

And the MIC (E. coli ATCC 25922)?
The MIC was 8 µg/mL (≈ 19.1 µM).

With `CNc1cccc2c1[nH]c1nc(Oc3cncnc3)nc(N3CC(F)[C@@H](N)C3)c12` (some centres unmarked) [3.63] as the compound, how does the MIC (S. aureus ATCC 13709) read?
Its MIC is no more than 0.5 µg/mL.

And the MIC (E. coli ATCC 25922)?
The MIC was 8 µg/mL (≈ 20.3 µM).

What does the source list for `CNc1cccc2c1[nH]c1nc(Oc3cncnc3)nc(N3CCC(N)CC3)c12` [3.64]?
MIC (S. aureus ATCC 13709): 16 µg/mL (≈ 41 µM); MIC (E. coli ATCC 25922): 64 µg/mL (≈ 164 µM)

`CNc1cccc2c1[nH]c1nc(Oc3cncnc3)nc(N3CCC4(CNC4)C3)c12` [3.65] was tested. Which MIC (S. aureus ATCC 13709) did it give?
Its MIC is 8 µg/mL (≈ 19.9 µM).

And the MIC (E. coli ATCC 25922)?
The MIC was 64 µg/mL (≈ 159 µM).

With `CNc1cccc2c1[nH]c1nc(Oc3cncc(F)c3)nc(N3CCC4(CNC4)C3)c12` [3.66] as the compound, how does the MIC (S. aureus ATCC 13709) read?
Its MIC is 8 µg/mL (≈ 19.1 µM).

And the MIC (E. coli ATCC 25922)?
The MIC was greater than 32 µg/mL.

With `CNc1cccc2c1[nH]c1nc(Oc3cncnc3)nc(N3CC4(CCNC4)C3)c12` [3.67] as the compound, how does the MIC (S. aureus ATCC 13709) read?
Its MIC is 16 µg/mL (≈ 39.8 µM).

And the MIC (E. coli ATCC 25922)?
Its MIC is 64 µg/mL (≈ 159 µM).

What does the source list for `CNc1cc(F)cc2c1[nH]c1nc(Oc3cncnc3)nc(N3CC4C(N)C4C3)c12` (centres unmarked) [4.001]?
MIC Sa (S. aureus ATCC 13709; S. aureus): ≤0.5 µg/mL; MIC Ec (E. coli ATCC 25922; E. coli): ≤0.5 µg/mL

Which results are given for `CNc1cc(F)cc2c1[nH]c1nc(Oc3cncnc3)nc(N3CC(N)C4(CC4)C3)c12` (centres unmarked) [4.002]?
MIC (S. aureus ATCC 13709): ≤ 0.5 µg/mL; MIC (E. coli ATCC 25922): ≤ 0.5 µg/mL
